# PMC8150913, “Chromene-Containing Aromatic Sulfonamides with Carbonic Anhydrase Inhibitory Properties” (International Journal of Molecular Sciences, 2021)
# What was measured:
# [1] = biological target: T1, hCA II (Homo sapiens, UniProt P00918); assay: Stopped-flow CA-catalyzed CO2 hydration inhibition assay; assay type: biochemical; settings: for Ki: stopped flow technique, mean from three different assays, recombinant enzyme, pH 7.4
# T1 construct: made in house
# Procedure: (§1) An Applied Photophysics stopped-flow instrument was used for assaying the CA catalyzed CO2 hydration activity. Phenol red (at a concentration of 0.2 mM) was used as an indicator, working at the absorbance maximum of 557 nm, with 20 mM Hepes (pH 7.4) as a buffer, and 20 mM Na2SO4 (for maintaining constant ionic strength), following the initial rates of the CA-catalyzed CO2 hydration reaction for a period of 10–100 s. The CO2 concentrations ranged from 1.7 to 17 mM for the determination of the kinetic parameters and inhibition constants. […] However, the background activity from the uncatalyzed reaction is always subtracted when IC50 values are obtained by using the data analysis software for the stopped flow instrument. […] For each inhibitor, at least six traces of the initial 5–10% of the reaction were used for determining the initial velocity. The uncatalyzed rates were determined in the same manner and subtracted from the total observed rates. Stock solutions of the inhibitor (0.1 mM) were prepared in distilled, deionized water, and dilutions up to 0.01 nM were done thereafter with the assay buffer. Inhibitor and enzyme solutions were preincubated together for 15 min at room temperature prior to the assay, allowing the formation of the E–I complex. The inhibition constants were obtained by non-linear least-squares methods using PRISM 3 and the Cheng-Prusoff equation as reported earlier, which represent the mean from at least three different determinations. All CA isoforms were recombinant proteins obtained in house, as reported earlier.
# [2] = biological target: T2, hCA I (Homo sapiens, UniProt P00915); assay: as above; assay type: biochemical; settings: stopped flow technique, mean from three different assays, recombinant enzyme, pH 7.4
# T2 construct: made in house
# T2 sequence (P00915 whole entry): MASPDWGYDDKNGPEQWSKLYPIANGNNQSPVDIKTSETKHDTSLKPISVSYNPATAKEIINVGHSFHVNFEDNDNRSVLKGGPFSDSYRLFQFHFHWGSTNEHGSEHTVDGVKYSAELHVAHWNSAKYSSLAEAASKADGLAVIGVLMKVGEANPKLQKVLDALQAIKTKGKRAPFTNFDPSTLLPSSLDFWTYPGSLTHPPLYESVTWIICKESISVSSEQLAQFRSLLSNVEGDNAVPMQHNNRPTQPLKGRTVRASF
# Procedure: as §1
# [3] = biological target: T3, hCA XII (Homo sapiens, UniProt O43570); assay: as above; assay type: biochemical; settings: stopped flow technique, mean from three different assays, recombinant enzyme, pH 7.4
# T3 construct: made in house
# T3 sequence (O43570 25-354): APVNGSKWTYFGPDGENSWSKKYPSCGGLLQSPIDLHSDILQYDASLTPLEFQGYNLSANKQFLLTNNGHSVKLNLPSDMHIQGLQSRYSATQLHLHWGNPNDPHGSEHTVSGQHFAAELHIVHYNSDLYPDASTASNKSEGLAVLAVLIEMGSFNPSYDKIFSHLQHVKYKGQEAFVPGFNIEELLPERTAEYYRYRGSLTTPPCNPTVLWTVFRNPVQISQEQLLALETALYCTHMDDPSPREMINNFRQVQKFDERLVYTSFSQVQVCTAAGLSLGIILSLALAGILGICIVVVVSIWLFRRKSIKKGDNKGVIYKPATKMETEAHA
# Procedure: as §1
# [4] = biological target: T4, hCA IX (Homo sapiens, UniProt Q16790); assay: as above; assay type: biochemical; settings: stopped flow technique, mean from three different assays, recombinant enzyme, pH 7.4
# T4 construct: made in house
# Procedure: as §1
SMILES,melting point [°C],Ki [1] [nM],Ki [2] [nM],Ki [3] [nM],Ki [4] [nM],selectivity index (SI) hCA II compared to hCA I ([1]; ratio of Ki values),selectivity index (SI) hCA II compared to hCA XII ([1]; ratio of Ki values)
"NS(=O)(=O)c1ccc(NC(=O)c2cc(=O)c3ccccc3o2)cc1 [5a, 4-Oxo-N-(4-sulfamoylphenyl)-4H-chromene-2-carboxamide]",296 to 298,35.1 ± 3.3,525 ± 44.4,20.1 ± 1.7,16.6 ± 1.5,–,–
"Cc1ccc2oc(C(=O)Nc3ccc(S(N)(=O)=O)cc3)cc(=O)c2c1 [5b, 6-Methyl-4-oxo-N-(4-sulfamoylphenyl)-4H-chromene-2-carboxamide]",307 to 308,95.9 ± 8,5310 ± 272,64.8 ± 6.1,77 ± 6.5,–,–
"Cc1ccc2c(=O)cc(C(=O)Nc3ccc(S(N)(=O)=O)cc3)oc2c1 [5c, 7-Methyl-4-oxo-N-(4-sulfamoylphenyl)-4H-chromene-2-carboxamide]",309 to 311,39.5 ± 3.2,3560 ± 228,50.8 ± 4.3,63.4 ± 6.3,–,–
"Cc1cc2oc(C(=O)Nc3ccc(S(N)(=O)=O)cc3)cc(=O)c2cc1C [5e, 6,7-Dimethyl-4-oxo-N-(4-sulfamoylphenyl)-4H-chromene-2-carboxamide]",310 to 312,311 ± 28.3,2890 ± 161,619 ± 36.7,299 ± 18.4,–,–
"Cc1ccc2c(=O)cc(C(=O)Nc3ccc(S(N)(=O)=O)cc3)oc2c1C [5f, 7,8-Dimethyl-4-oxo-N-(4-sulfamoylphenyl)-4H-chromene-2-carboxamide]",328 to 330,9.3 ± 0.5,341 ± 29.6,76.3 ± 6,19.5 ± 1.6,–,–
"Cc1cc(C)c2oc(C(=O)Nc3ccc(S(N)(=O)=O)cc3)cc(=O)c2c1 [5h, 6,8-Dimethyl-4-oxo-N-(4-sulfamoylphenyl)-4H-chromene-2-carboxamide]",309 to 311,46.6 ± 2.9,505 ± 27,26.8 ± 1.4,22.5 ± 1.9,–,–
"Cc1ccc2oc(C(=O)NCc3ccc(S(N)(=O)=O)cc3)cc(=O)c2c1 [6b, 6-Methyl-4-oxo-N-(4-sulfamoylbenzyl)-4H-chromene-2-carboxamide]",293 to 295,81.7 ± 4.2,612 ± 49.5,320 ± 23.2,2040 ± 189,–,–
"NS(=O)(=O)c1ccc(CCNC(=O)c2cc(=O)c3ccccc3o2)cc1 [6d, 4-Oxo-N-(4-sulfamoylphenethyl)-4H-chromene-2-carboxamide]",248 to 250,16.6 ± 1.2,322 ± 27.9,212 ± 13.7,81 ± 7.7,–,–
"Cc1ccc2oc(C(=O)NCCc3ccc(S(N)(=O)=O)cc3)cc(=O)c2c1 [6e, 6-Methyl-4-oxo-N-(4-sulfamoylphenethyl)-4H-chromene-2-carboxamide]",257 to 259,36.4 ± 2.1,247 ± 24.3,439 ± 32.2,72.7 ± 4.3,–,–
"CCc1ccc2oc(C(=O)NCCc3ccc(S(N)(=O)=O)cc3)cc(=O)c2c1 [6g, 6-Ethyl-4-oxo-N-(4-sulfamoylphenethyl)-4H-chromene-2-carboxamide]",257 to 259,280 ± 15.5,971 ± 82.4,148 ± 8.1,183 ± 16.1,–,–
"Cc1cc2oc(C(=O)NCCc3ccc(S(N)(=O)=O)cc3)cc(=O)c2cc1C [6h, 6,7-Dimethyl-4-oxo-N-(4-sulfamoylphenethyl)-4H-chromene-2-carboxamide]",282 to 284,51.2 ± 3.6,547 ± 39.2,22.6 ± 1.5,51.4 ± 4.5,–,–

# Now from value to molecule:
melting point [°C],Ki [1] [nM],Ki [2] [nM],Ki [3] [nM],Ki [4] [nM],selectivity index (SI) hCA II compared to hCA I ([1]; ratio of Ki values),selectivity index (SI) hCA II compared to hCA XII ([1]; ratio of Ki values),SMILES
297 to 299,–,–,–,–,–,–,"CCc1ccc2oc(C(=O)Nc3ccc(S(N)(=O)=O)cc3)cc(=O)c2c1 [5d, 6-Ethyl-4-oxo-N-(4-sulfamoylphenyl)-4H-chromene-2-carboxamide]"
304 to 306,61.4 ± 4.4,682 ± 40.6,46.4 ± 4.4,54.7 ± 5,–,–,"Cc1cc(C)c2c(=O)cc(C(=O)Nc3ccc(S(N)(=O)=O)cc3)oc2c1 [5g, 5,7-Dimethyl-4-oxo-N-(4-sulfamoylphenyl)-4H-chromene-2-carboxamide]"
296 to 298,66.2 ± 5.8,2700 ± 265,425 ± 41,51 ± 4.8,–,–,"NS(=O)(=O)c1ccc(NC(=O)c2cc(=O)c3cc(Cl)ccc3o2)cc1 [5i, 6-Chloro-4-oxo-N-(4-sulfamoylphenyl)-4H-chromene-2-carboxamide]"
305 to 307,901 ± 75.4,580 ± 50.5,155 ± 10.1,516 ± 37.2,–,–,"Cc1cc2oc(C(=O)Nc3ccc(S(N)(=O)=O)cc3)cc(=O)c2cc1Cl [5j, 6-Chloro-7-methyl-4-oxo-N-(4-sulfamoylphenyl)-4H-chromene-2-carboxamide]"
284 to 286,219 ± 11.8,628 ± 35.5,34 ± 2.2,855 ± 49.2,–,–,"NS(=O)(=O)c1ccc(CNC(=O)c2cc(=O)c3ccccc3o2)cc1 [6a, 4-Oxo-N-(4-sulfamoylbenzyl)-4H-chromene-2-carboxamide]"
299 to 301,679 ± 45,2650 ± 227,59.4 ± 5,3280 ± 302,–,–,"NS(=O)(=O)c1ccc(CNC(=O)c2cc(=O)c3cc(Cl)ccc3o2)cc1 [6c, 6-Chloro-4-oxo-N-(4-sulfamoylbenzyl)-4H-chromene-2-carboxamide]"
253 to 255,7.5 ± 0.5,334 ± 17.5,337 ± 27.4,64.8 ± 3.4,44.47,44.97,"Cc1ccc2c(=O)cc(C(=O)NCCc3ccc(S(N)(=O)=O)cc3)oc2c1 [6f, 7-Methyl-4-oxo-N-(4-sulfamoylphenethyl)-4H-chromene-2-carboxamide]"
280 to 282,39.2 ± 3.7,214 ± 15.9,132 ± 11,84.5 ± 4.3,–,–,"Cc1ccc2c(=O)cc(C(=O)NCCc3ccc(S(N)(=O)=O)cc3)oc2c1C [6i, 7,8-Dimethyl-4-oxo-N-(4-sulfamoylphenethyl)-4H-chromene-2-carboxamide]"
283 to 285,143 ± 12.8,4410 ± 347,31.4 ± 2.6,91.1 ± 8.9,–,–,"Cc1cc(C)c2oc(C(=O)NCCc3ccc(S(N)(=O)=O)cc3)cc(=O)c2c1 [6j, 6,8-Dimethyl-4-oxo-N-(4-sulfamoylphenethyl)-4H-chromene-2-carboxamide]"
285 to 287,91.6 ± 7,927 ± 68.9,41.4 ± 3.4,1920 ± 146,–,–,"NS(=O)(=O)c1ccc(CCNC(=O)c2cc(=O)c3cc(Cl)ccc3o2)cc1 [6k, 6-Chloro-4-oxo-N-(4-sulfamoylphenethyl)-4H-chromene-2-carboxamide]"
